Reference: patent US11548875B2, “Inhibitor compounds for male contraception” (University of Washington, priority 2018, dated 2023)
Like-named read-outs stand apart in the source and are kept apart here.

Columns and labels:
ALDH1A2 [1] = molecular target: T1, ALDH1A2 (Homo sapiens, UniProt O94788); assay: Inhibitor screening using purified enzymes: ALDH1A2 activity, retinoic acid production by HPLC (5 uM initial screen, then IC50); type: biochemical; design: histidine-tag (C); made in house; host or cells: bacterial expression (pET28 vector, IPTG induction); conditions: purified enzyme
T1 sequence (O94788 1-518): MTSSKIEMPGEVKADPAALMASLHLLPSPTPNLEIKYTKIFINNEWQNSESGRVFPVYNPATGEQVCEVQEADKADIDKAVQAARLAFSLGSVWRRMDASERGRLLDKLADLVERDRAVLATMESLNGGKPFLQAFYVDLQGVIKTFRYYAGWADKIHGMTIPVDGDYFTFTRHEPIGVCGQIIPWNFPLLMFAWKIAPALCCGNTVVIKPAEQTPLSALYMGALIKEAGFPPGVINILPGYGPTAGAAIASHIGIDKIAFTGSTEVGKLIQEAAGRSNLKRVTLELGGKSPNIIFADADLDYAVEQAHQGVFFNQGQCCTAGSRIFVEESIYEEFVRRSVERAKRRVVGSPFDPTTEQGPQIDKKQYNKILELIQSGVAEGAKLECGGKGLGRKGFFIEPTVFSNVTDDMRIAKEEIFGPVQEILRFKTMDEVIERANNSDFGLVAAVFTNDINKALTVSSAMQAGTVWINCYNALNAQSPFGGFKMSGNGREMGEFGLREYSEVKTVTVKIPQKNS
Summary of the method: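 Purified His-tagged human enzymes in 10 mM HEPES pH 8.0, 150 mM KCl, 2 mM EDTA with 2 mM NAD, all-trans-retinal substrate; retinoic acid quantified by HPLC. ALDH1A2 initial screen: 1 μg enzyme, 5 μM retinal, 5 μM inhibitor, 15 min, 37° C; IC50 runs: 0.5 μg enzyme, 0.5 μg retinal, 5 min, 37° C.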

ALDH1A1 [2] = molecular target: T2, ALDH1A1 (Homo sapiens, UniProt P00352); assay: Inhibitor screening using purified enzymes: ALDH1A1 activity, retinoic acid production by HPLC; type: biochemical; conditions: purified enzyme
T2 sequence (P00352 1-501): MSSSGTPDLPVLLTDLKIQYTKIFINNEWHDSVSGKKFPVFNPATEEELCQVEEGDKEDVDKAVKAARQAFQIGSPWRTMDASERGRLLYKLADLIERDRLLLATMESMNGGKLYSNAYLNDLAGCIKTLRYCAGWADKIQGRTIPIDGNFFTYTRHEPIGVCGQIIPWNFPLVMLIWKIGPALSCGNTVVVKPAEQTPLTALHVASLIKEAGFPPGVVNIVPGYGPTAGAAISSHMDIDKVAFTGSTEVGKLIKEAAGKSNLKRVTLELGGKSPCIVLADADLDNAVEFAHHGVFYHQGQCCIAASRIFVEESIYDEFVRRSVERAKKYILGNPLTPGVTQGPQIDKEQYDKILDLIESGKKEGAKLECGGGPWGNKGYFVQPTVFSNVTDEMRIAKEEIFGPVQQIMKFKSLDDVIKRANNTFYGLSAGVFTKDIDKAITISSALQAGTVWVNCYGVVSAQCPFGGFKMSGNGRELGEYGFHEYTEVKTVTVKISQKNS
Text: ALDHs were cloned into bacterial expression vector for in vitro enzyme assays and into mammalian expression vectors for cell-based enzyme assays. Human ALDH1A1 cDNA and human ALDH2 cDNA were purchased from OriGene (SC321535) and Open Biosystems (MHS4771-99611182), respectively. and human ALDH1A2 cDNA was cloned from human testis RNA using RT-PCR (Population Division of the Department of Economic and Social Affairs of the United Nations Secretariat. World Population prospects: the 2008 revision. Available at http://www.un.org/esa/population/ (Retrieved Sep. 30, 2011)). For bacterial expression, an open reading frame of ALDH1A1 and ALDH2 were subcloned into the pETite vector (Lucigen) with a 5′ histidine-tag and that of ALDH1A2 into a pET28 vector (Novagen) with a 3′ histidine-tag. Correct frame and sequences were verified through DNA sequencing (UW DNA sequencing facility). ALDHs were induced with 1 mM IPTG and purified using His.Bind resin (Novagen, San Diego, Calif.) and stored in a buffer containing 20 mM Hepes (pH 8), 150 mM KCl and 1 mM EDTA as previously described (Fierce, Y., de Morais Vieira, M., Piantedosi, R., Wyss, A., Blaner, W. S., and Paik, J. (2008) In vitro and in vivo characterization of retinoid synthesis from beta-carotene. Archives of biochemistry and biophysics 472, 126-138).
ALDH1A1 and ALDH1A2 activity was determined as previously reported (Beedle M T, Stevison F, Zhong G, Topping T, Hogarth C, Isoherranen N, Griswold M D. Sources of All-Trans Retinal Oxidation Independent of the Aldehyde Dehydrogenase 1A Isozymes Exist in the Postnatal Testis. Biol Reprod. 2018 Sep. 21. doi: 10.1093/biolre/ioy200). Briefly, purified enzymes were incubated in a buffer containing 10 mM HEPES buffer (pH 8.0), 150 mM potassium chloride and 2 mM EDTA with 2 mM NAD. Retinoic acid production was determined using HPLC as previously reported (Amory J K, Muller C H, Shimshoni A J, Isoherranen N, Paik J, Moreb J S, Amory D W, Evanoff R, Goldstein A S, Griswold M D. Suppression of spermatogenesis by bisdichloroacetyldiamines is mediated by inhibition of testicular retinoic acid biosynthesis. Journal of Andrology 2011; 32(1):111-119). Inhibitors were diluted in DMSO and added to the reactions. […] For initial screening of inhibitors for ALDH1A2, 1 μg ALDH1A2, 5 μM all-trans-retinal and 5 μM inhibitors were incubated for 15 min at 37° C. […] For this purpose, 0.5 μg ALDH1A2 and […] were incubated for 5 minutes at 37° C. with varying concentrations of inhibitors. To determine specificity toward ALDH1A2, the IC50 for […]

ALDH1A1 [3] = molecular target: T2, ALDH1A1; assay: Cell-based enzyme assay, retinoic acid production in ALDH1A1/H1299 cells
Description: (§1) ALDH1A1 cDNA clone was purchased transfection-ready, and ALDH1A2 full-length cDNA was subcloned into pcDNA3, a mammalian expression vector. ALDH1A1 and ALDH1A2 were transfected into H1299 cells (CRL5803, ATCC) using Lipofectamine 3000 (Invitrogen) following the manufacturer's instructions. Stably transfected cells were selected with G418 (1.2 mg/ml) and referred to as ALDH1A1/H1299 and ALDH1A2/H1299. For the cell-based enzyme assays,
(§2) H1299 cells were routinely grown in RPMI-1640 (ATCC) supplemented with 10% fetal bovine serum (Atlanta Biologicals) in a 37 C, 5% CO2, moisture-saturated atmosphere. H1299, ALDH1A1/H1299 and ALDH1A2/H1299 cells were seeded into 12-well plates (1×10^5 cells/well) and grown for 2 days to confluence. Confluent cells were treated for 20 hours in the above media excluding serum with 2 μM all-trans-retinal, and varying concentrations of inhibitors. Serum-free media was used for the treatment period to avoid retinoic acid in serum. Retinoic acid concentrations were determined from cells and media, and specificity of inhibitors was determined by comparing retinoic acid levels in the presence and absence of the inhibitors in ALDH1A1- vs. ALDH1A2-expressing cells.

ALDH1A2 [4] = molecular target: T1, ALDH1A2; assay: Cell-based enzyme assay, retinoic acid production in ALDH1A2/H1299 cells
Description: as §1, §2

ALDH2 = molecular target: T3, ALDH2 (Homo sapiens, UniProt P05091); assay: Purified ALDH2 assay with propanal, NADH fluorescence; type: biochemical; conditions: purified enzyme
T3 construct: histidine-tag (N); made in house; host or cells: bacterial expression (pETite vector, IPTG induction)
T3 sequence (P05091 18-517): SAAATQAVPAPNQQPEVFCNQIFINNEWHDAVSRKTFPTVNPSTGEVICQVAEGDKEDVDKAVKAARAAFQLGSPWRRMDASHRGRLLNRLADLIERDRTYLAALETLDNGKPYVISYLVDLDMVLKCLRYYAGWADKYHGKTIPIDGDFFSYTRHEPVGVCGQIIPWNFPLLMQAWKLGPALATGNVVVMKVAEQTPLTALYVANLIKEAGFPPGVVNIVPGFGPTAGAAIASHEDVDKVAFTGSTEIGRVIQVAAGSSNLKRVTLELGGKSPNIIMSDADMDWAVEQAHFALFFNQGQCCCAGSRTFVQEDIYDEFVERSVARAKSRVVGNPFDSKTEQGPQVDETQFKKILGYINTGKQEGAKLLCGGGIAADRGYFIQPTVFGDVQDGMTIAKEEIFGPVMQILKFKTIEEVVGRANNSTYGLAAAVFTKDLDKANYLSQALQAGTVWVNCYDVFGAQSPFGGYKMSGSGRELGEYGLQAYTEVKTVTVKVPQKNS
Summary of the method: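 His-tagged human ALDH2 expressed in bacteria and purified. 2 μg enzyme incubated with 20 μM propanal and varying inhibitor concentrations at room temperature. Activity read as NADH fluorescence (Ex 350/Em 460 nm), with initial velocity from two consecutive readings over 1 minute.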

mice = conditions: cited from earlier work

Compound | IC50 (ALDH1A2 [1]) [µM] | IC50 (ALDH1A1 [2]) [µM] | EC50 (ALDH1A1 [3]; cell-based) [µM] | EC50 (ALDH1A2 [4]; cell-based) [µM] | IC50 (ALDH2) [µM] | EC50 (ALDH1A1 [3]) [µM] | EC50 (ALDH1A2 [4]) [µM] | fertility (mice; mice, oral) | liver toxicity (mice; mouse, in vivo) | effect on spermatogenesis (mice; oral doses as low as 5 mg/kg for seven days)
3-{4-[(Difluoroacetyl)amino]phenyl}-1-(4-cyanophenyl)-N-(3-fluorophenyl)-1H-pyrazole-4-carboxamide [Compound 279] | 0.61 | 0.029 | 0.056 | 0.017 | – | – | – | – | – | –
O=C(Nc1cccc(F)c1)c1cn(-c2ccccc2)nc1-c1ccc(CNC(=O)C(Cl)Cl)cc1 [Compound 8-64, 3-(4-{[(Dichloroacetyl)amino]methyl}phenyl)-N-(3-fluorophenyl)-1-phenyl-1H-pyrazole-4-carboxamide] | 0.015 | 2 | – | – | – | – | – | – | – | –
Cc1ccc(NC(=O)c2cn(-c3ccccc3)nc2-c2ccc(F)cc2)cc1 [Compound 131, 3-(4-Fluorophenyl)-N-(4-methylphenyl)-1-phenyl-1H-pyrazole-4-carboxamide] | 3.02 | 0.388 | – | – | 18.8 | – | – | – | – | –
Cc1ccccc1-c1nn(-c2ccccc2)cc1C(=O)Nc1cccc(F)c1 [Compound 149, N-(3-Fluorophenyl)-3-(2-methylphenyl)-1-phenyl-1H-pyrazole-4-carboxamide] | 2.15 | 0.601 | – | – | 4.6 | – | – | – | – | –
CON(C)C(=O)c1ccc(-c2nn(-c3ccc(C#N)cc3)cc2C(=O)Nc2cccc(F)c2)cc1 [Compound 296] | 0.15 | 9.44 | 0.542 | 0.023 | – | – | – | – | – | –
N#Cc1ccc(-n2cc(C(=O)Nc3cccc(F)c3)c(-c3ccc(NC(=O)C(Cl)Cl)cc3)n2)cc1 [Compound 310, 3-{4-[(Dichloroacetyl)amino]phenyl}-1-(4-cyanophenyl)-N-(3-fluorophenyl)-1H-pyrazole-4-carboxamide] | 0.065 | 0.009 | 0.14 | 0.245 | – | – | – | – | – | –
C=C(C(=O)OC)c1ccc(-c2nn(-c3ccc(C#N)cc3)cc2C(=O)Nc2cccc(F)c2)cc1 [Compound 312, Methyl 2-(4-{4-[(3-fluorophenyl)carbamoyl]-1-4-cyanophenyl-1H-pyrazol-3-yl}phenyl)prop-2-enoate] | 1.2 | 3.61 | 0.251 | 12.5 | – | – | – | – | – | –
CC(=O)c1ccc(-c2nn(-c3ccc(C#N)cc3)cc2C(=O)Nc2cccc(F)c2)cc1 [Compound 316, 3-(4-Acetylphenyl)-N-(3-fluorophenyl)-1-(4-cyanophenyl)-1H-pyrazole-4-carboxamide] | 0.6 | 10.2 | 0.28 | 0.123 | – | – | – | – | – | –
Cn1cccc1C(=O)N1CCN(c2ccc(N)c(N3CCCCCC3)c2)CC1 [Compound 379, {4-[4-Amino-3-(azepan-1-yl)phenyl]piperazin-1-yl}(1-methyl-1H-pyrrol-2-yl)methanone] | 2.58 | 0.714 | – | – | – | 0.736 | 2.58 | – | – | –
Cn1cccc1C(=O)N1CCN(c2ccc(NC(=O)C(Cl)Cl)c(N3CCCCC3)c2)CC1 [Compound 380, {4-[4-Dichloroacetamido-3-(piperidin-1-yl)phenyl]piperazin-1-yl}(1-methyl-1H-pyrrol-2-yl)methanone] | 8.7 | 0.023 | – | – | – | 0.099 | > 5 | – | – | –
BMS-189453 | – | – | – | – | – | – | – | infertile after four weeks of treatment | hepatic inflammation | potently inhibits spermatogenesis
